# Patent publication US11813245B2, “Sulcardine administration for treatment of acute atrial fibrillation” (HUYABIO International, LLC, priority 2020, dated 2023)
# Where a name gives a salt, the structure may show the parent alone. Read-outs that look alike come from different tables or passages of the source.
# Key:
# [1] = tested on: healthy subjects; test: Phase 1 single ascending dose trial of intravenous HBI-3000: continuous 12-lead Holter ECG, baseline and placebo subtracted (ΔΔ) ECG intervals at Cmax; type: in vivo, human
# Procedure: (§1) HBI-3000 (sulcardine sulfate) was administered to human subjects according to the protocol provided in (Clinical Trials.gov Identifier: NCT03397641. That protocol is incorporated herein by reference in its entirety.
# (§2) Objective: Provided herein are the safety, tolerability, pharmacokinetics and electrocardiogram (ECG) results of a Phase 1 single ascending dose trial of intravenous (IV) HBI-3000 in healthy subjects.
# (§3) Methods: […] subjects were randomized to 6 cohorts of 8 subjects to receive 1 of 5 single ascending iv doses (Table 2) of HBI-3000 or placebo (6:2), with 2 cohorts receiving the 600 mg dose. Doses of HBI-3000 ranged from 20 mg (Cohort A), 60 mg (Cohort B), 180 mg (Cohort C), 360 mg (Cohort D), to 600 mg (Cohort E and F). Drug was a lyophilized powder, reconstituted to […] then diluted in saline for delivery via intravenous infusion as a 50 mL solution over 30 minutes.
# Continuous 12-lead Holter ECG data were recorded at baseline and 11 time points thereafter. Mean baseline and placebo subtracted (ΔΔ) ECG intervals (QTcF, HR, PR, QRS, and P-wave duration [PDur]) and T-wave segments (J to T peak [JTp] and T peak to T end [TpTe]) were calculated at Cmax for each dose.
# Table 2 summarizes ECG data at Cmax for each dose, as predicted by mixed-effects modeling. […] The increases in QRS and PDur are consistent with block of INa-Peak. The increase in the PR interval is consistent with the increase in PDur and with both INa-Peak and ICa,L inhibition. Prolongation of TpTe is consistent with IKr block, which would be expected, in isolation, to lengthen JTp as well. The observed dose-related reduction of JTp is likely due to counteraction of the effect of HBI-3000 on IKr through its inhibition of both INa-Late, and ICa,L.
# [2] = Phase 1 single ascending dose trial of intravenous HBI-3000: pharmacokinetics; type: in vivo; settings: human, plasma
# Procedure: as §1, §2, §3
# In some instances, the patient is administered 350 mg of HBI-3000.
# [3] = tested on: healthy subjects; test: Phase 1 single ascending dose trial of intravenous HBI-3000: safety and tolerability; type: in vivo, human; settings: single ascending iv doses 20-600 mg
# Procedure: as §1, §2, §3
# [4] = target: INa-Peak (Homo sapiens, UniProt Q14524); settings: background statement; cited from earlier work
# [5] = target: INa-Late (Homo sapiens, UniProt Q14524); settings: background statement; cited from earlier work
# [6] = target: ICa,L (Homo sapiens, UniProt Q13936); settings: background statement; cited from earlier work
# [7] = target: IKr (Homo sapiens, UniProt Q12809); settings: background statement; cited from earlier work
# [8] = Chen et al.; cited from earlier work
# [9] = 20 mg single iv infusion over 30 min, at Cmax 135 ng/ml, N=6, concentration-effect regression model
# [10] = 60 mg single iv infusion over 30 min, at Cmax 378 ng/ml, N=6, concentration-effect regression model
# [11] = 180 mg single iv infusion over 30 min, at Cmax 1530 ng/ml, N=6, concentration-effect regression model
# [12] = 360 mg single iv infusion over 30 min, at Cmax 3120 ng/ml, N=5, concentration-effect regression model
# [13] = 600 mg single iv infusion over 30 min, at Cmax 5280 ng/ml, N=12, concentration-effect regression model
# [14] = concentration-effect regression model, iv doses 20-600 mg
# [15] = 20 mg single iv infusion over 30 min, healthy subjects, N=6
# [16] = 60 mg single iv infusion over 30 min, healthy subjects, N=6
# [17] = 180 mg single iv infusion over 30 min, healthy subjects, N=6
# [18] = 360 mg single iv infusion over 30 min, healthy subjects, N=5
# [19] = 600 mg single iv infusion over 30 min, healthy subjects, N=12
# IKr, sequence (Q12809 whole entry): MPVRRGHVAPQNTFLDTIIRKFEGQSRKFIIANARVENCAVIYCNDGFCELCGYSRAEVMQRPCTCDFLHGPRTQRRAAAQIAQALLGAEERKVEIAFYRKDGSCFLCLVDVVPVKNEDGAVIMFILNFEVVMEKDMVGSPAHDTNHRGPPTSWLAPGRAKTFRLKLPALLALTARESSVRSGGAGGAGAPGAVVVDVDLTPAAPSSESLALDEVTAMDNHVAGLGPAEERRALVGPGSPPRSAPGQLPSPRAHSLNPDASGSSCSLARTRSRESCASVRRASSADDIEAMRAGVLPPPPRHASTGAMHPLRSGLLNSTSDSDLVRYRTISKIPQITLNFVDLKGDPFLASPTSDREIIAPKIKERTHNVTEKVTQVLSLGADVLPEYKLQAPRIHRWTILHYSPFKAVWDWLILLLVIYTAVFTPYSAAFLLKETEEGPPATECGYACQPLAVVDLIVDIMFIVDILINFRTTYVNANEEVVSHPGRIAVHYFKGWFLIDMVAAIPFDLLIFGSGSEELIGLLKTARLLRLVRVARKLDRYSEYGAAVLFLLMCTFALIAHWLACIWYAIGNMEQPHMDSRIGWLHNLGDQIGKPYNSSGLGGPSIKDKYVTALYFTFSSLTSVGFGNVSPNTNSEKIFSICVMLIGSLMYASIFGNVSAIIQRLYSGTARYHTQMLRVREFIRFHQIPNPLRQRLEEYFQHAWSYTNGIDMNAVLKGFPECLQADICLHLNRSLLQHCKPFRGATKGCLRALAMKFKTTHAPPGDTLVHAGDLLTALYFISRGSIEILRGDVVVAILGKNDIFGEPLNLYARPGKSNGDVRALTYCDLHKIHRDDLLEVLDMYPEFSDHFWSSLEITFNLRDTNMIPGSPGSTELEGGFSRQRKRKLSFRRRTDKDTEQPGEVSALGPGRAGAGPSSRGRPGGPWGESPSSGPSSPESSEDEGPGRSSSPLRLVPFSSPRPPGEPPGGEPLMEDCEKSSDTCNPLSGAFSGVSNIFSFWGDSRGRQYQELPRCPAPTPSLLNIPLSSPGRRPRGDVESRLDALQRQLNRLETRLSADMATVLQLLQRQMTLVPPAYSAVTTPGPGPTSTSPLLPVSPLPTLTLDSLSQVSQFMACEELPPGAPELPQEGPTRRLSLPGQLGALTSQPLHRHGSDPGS
# INa-Late, sequence (Q14524 whole entry): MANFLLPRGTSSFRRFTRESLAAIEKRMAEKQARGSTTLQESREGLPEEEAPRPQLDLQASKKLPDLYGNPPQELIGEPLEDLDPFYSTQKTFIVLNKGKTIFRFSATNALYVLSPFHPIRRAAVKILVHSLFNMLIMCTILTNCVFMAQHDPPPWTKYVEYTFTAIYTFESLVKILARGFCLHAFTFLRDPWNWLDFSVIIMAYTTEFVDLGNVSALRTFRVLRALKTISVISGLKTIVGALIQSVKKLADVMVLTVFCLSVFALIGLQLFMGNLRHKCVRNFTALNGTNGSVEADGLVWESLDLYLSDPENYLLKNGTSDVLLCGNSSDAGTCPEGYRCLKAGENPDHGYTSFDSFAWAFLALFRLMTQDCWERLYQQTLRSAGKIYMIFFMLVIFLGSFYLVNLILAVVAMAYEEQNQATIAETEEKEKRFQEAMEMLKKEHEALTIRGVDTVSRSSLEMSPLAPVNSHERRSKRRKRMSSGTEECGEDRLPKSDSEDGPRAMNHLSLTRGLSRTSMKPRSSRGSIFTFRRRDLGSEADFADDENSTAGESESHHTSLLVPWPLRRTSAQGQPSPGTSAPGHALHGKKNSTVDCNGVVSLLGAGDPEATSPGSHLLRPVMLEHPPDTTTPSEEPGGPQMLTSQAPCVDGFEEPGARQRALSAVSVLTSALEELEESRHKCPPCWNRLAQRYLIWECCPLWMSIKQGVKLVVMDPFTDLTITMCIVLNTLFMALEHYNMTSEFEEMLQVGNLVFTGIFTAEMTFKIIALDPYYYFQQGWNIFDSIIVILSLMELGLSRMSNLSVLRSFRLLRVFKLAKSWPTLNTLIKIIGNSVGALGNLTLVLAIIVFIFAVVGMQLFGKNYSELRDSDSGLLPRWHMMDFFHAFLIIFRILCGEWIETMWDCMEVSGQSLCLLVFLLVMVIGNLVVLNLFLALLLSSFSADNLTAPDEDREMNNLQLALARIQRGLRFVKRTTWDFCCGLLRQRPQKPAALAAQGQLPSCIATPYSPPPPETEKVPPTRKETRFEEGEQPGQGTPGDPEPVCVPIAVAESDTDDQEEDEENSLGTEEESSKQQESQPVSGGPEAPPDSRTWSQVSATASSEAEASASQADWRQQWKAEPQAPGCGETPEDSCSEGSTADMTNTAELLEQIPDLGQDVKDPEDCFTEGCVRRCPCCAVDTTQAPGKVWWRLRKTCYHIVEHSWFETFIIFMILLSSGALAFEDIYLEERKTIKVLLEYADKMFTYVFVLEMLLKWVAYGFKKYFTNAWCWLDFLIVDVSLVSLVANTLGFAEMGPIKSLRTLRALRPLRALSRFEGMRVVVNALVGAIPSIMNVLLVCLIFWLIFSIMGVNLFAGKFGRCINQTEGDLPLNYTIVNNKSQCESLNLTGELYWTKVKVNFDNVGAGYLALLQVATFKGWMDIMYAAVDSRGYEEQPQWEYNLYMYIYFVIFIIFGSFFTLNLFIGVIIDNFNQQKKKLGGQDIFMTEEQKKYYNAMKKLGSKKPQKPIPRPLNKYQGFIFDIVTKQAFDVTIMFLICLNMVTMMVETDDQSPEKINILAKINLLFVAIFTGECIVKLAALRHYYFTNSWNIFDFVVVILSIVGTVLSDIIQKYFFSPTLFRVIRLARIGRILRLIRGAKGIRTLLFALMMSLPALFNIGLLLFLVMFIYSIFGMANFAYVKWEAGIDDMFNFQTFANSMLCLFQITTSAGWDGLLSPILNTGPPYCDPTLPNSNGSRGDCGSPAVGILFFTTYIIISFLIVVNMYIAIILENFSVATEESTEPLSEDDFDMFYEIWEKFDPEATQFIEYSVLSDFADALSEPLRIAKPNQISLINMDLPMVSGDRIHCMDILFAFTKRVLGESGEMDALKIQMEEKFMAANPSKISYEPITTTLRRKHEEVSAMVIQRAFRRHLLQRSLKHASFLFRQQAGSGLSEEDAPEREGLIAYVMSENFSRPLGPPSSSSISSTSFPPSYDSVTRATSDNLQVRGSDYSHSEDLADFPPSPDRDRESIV
smiles,measurement,setting,value
"COc1ccc(S(=O)(=O)NCc2cc(CN3CCCC3)c(O)c(CN3CCCC3)c2)cc1 [HBI-3000, sulcardine sulfate]",ΔΔHR,[1]; [9],1.74 bpm
same,ΔΔJTp,[1]; [9],-2.87 ms
same,ΔΔPDur,[1]; [9],3.17 ms
same,ΔΔPR,[1]; [9],5.08 ms
same,ΔΔQRS,[1]; [9],-0.08 ms
same,ΔΔQTcF,[1]; [9],1.40 ms
same,ΔΔTpTe,[1]; [9],1.95 ms
same,ΔΔHR,[1]; [10],2.21 bpm
same,ΔΔJTp,[1]; [10],-5.28 ms
same,ΔΔPDur,[1]; [10],3.71 ms
same,ΔΔPR,[1]; [10],6.06 ms
same,ΔΔQRS,[1]; [10],0.54 ms
same,ΔΔQTcF,[1]; [10],2.35 ms
same,ΔΔTpTe,[1]; [10],2.20 ms
same,ΔΔHR,[1]; [11],4.44 bpm
same,ΔΔJTp,[1]; [11],-15.09 ms
same,ΔΔPDur,[1]; [11],6.24 ms
same,ΔΔPR,[1]; [11],10.73 ms
same,ΔΔQRS,[1]; [11],3.50 ms
same,ΔΔQTcF,[1]; [11],6.89 ms
same,ΔΔTpTe,[1]; [11],3.37 ms
same,ΔΔHR,[1]; [12],7.70 bpm
same,ΔΔJTp,[1]; [12],-24.60 ms
same,ΔΔPDur,[1]; [12],9.93 ms
same,ΔΔPR,[1]; [12],17.53 ms
same,ΔΔQRS,[1]; [12],7.81 ms
same,ΔΔQTcF,[1]; [12],13.50 ms
same,ΔΔTpTe,[1]; [12],5.07 ms
same,ΔΔHR,[1]; [13],12.75 bpm
same,ΔΔJTp,[1]; [13],-28.10 ms
same,ΔΔPDur,[1]; [13],15.67 ms
same,ΔΔPR,[1]; [13],28.10 ms
same,ΔΔQRS,[1]; [13],14.50 ms
same,ΔΔQTcF,[1]; [13],23.77 ms
same,ΔΔTpTe,[1]; [13],7.72 ms
same,onset and loss of pharmacodynamic effect,"[1]; about 400 mg to about 800 mg according to the protocol, human subjects",quickly effective and then quickly loses its effect
same,"Slope, ΔΔHR",[1]; [14],0.0019
same,"Slope, ΔΔJTp",[1]; [14],−0.0000
same,"Slope, ΔΔPDur",[1]; [14],0.0022
same,"Slope, ΔΔPR",[1]; [14],0.0040
same,"Slope, ΔΔQRS",[1]; [14],0.0026
same,"Slope, ΔΔQTcF",[1]; [14],0.0039
same,"Slope, ΔΔTpTe",[1]; [14],0.0010
same,changes in ECG parameters,"[1]; single ascending iv doses 20-600 mg, healthy subjects",dose-proportional changes in all ECG parameters
same,AUC(0-t),"[2]; intravenous, 350 mg, read-out: AUC (0-24)",2880 ng·h/mL
same,AUC(0-t),"[2]; intravenous, 350 mg, read-out: AUC (0-last)",3370 ng·h/mL
same,Cmax,"[2]; intravenous, 350 mg, read-out: Cmax",3080 ng/mL
same,AUC(0-inf),"[2]; intravenous, 350 mg dose",3720 ng·h/mL
same,half-life,"[2]; intravenous, 350 mg dose",43 h
same,Tmax,"[2]; intravenous, 350 mg dose, read-out: Tmax",27 min
same,Cmax,"[2]; iv, 20 mg, 20 mg single iv infusion over 30 min, N=6, as used for ΔΔECG model, read-out: Cmax (Table 2)",135 ng/mL
same,AUC(0-t),"[2]; iv, 20 mg, 20 mg single iv infusion over 30 min, healthy subjects, N=6, read-out: AUC (0-24)",89.7 ng·h/mL
same,AUC(0-t),"[2]; iv, 20 mg, 20 mg single iv infusion over 30 min, healthy subjects, N=6, read-out: AUC (0-last)",86.2 ng·h/mL
same,Cmax,"[2]; iv, 20 mg, 20 mg single iv infusion over 30 min, healthy subjects, N=6, read-out: Cmax",131 ng/mL
same,Cmax,"[2]; iv, 60 mg, 60 mg single iv infusion over 30 min, N=6, as used for ΔΔECG model, read-out: Cmax (Table 2)",378 ng/mL
same,AUC(0-t),"[2]; iv, 60 mg, 60 mg single iv infusion over 30 min, healthy subjects, N=6, read-out: AUC (0-24)",299 ng·h/mL
same,AUC(0-t),"[2]; iv, 60 mg, 60 mg single iv infusion over 30 min, healthy subjects, N=6, read-out: AUC (0-last)",306 ng·h/mL
same,Cmax,"[2]; iv, 60 mg, 60 mg single iv infusion over 30 min, healthy subjects, N=6, read-out: Cmax",369 ng/mL
same,Cmax,"[2]; iv, 180 mg, 180 mg single iv infusion over 30 min, N=6, as used for ΔΔECG model, read-out: Cmax (Table 2)",1530 ng/mL
same,AUC(0-t),"[2]; iv, 180 mg, 180 mg single iv infusion over 30 min, healthy subjects, N=6, read-out: AUC (0-24)",1270 ng·h/mL
same,AUC(0-t),"[2]; iv, 180 mg, 180 mg single iv infusion over 30 min, healthy subjects, N=6, read-out: AUC (0-last)",1550 ng·h/mL
same,Cmax,"[2]; iv, 180 mg, 180 mg single iv infusion over 30 min, healthy subjects, N=6, read-out: Cmax",1430 ng/mL
same,Cmax,"[2]; iv, 360 mg, 360 mg single iv infusion over 30 min, N=5, as used for ΔΔECG model, read-out: Cmax (Table 2)",3120 ng/mL
same,AUC(0-t),"[2]; iv, 360 mg, 360 mg single iv infusion over 30 min, healthy subjects, N=5, read-out: AUC (0-24)",2960 ng·h/mL
same,AUC(0-t),"[2]; iv, 360 mg, 360 mg single iv infusion over 30 min, healthy subjects, N=5, read-out: AUC (0-last)",3470 ng·h/mL
same,Cmax,"[2]; iv, 360 mg, 360 mg single iv infusion over 30 min, healthy subjects, N=5, read-out: Cmax",3170 ng/mL
same,Cmax,"[2]; iv, 600 mg, 600 mg single iv infusion over 30 min, N=12, as used for ΔΔECG model, read-out: Cmax (Table 2)",5280 ng/mL
same,AUC(0-t),"[2]; iv, 600 mg, 600 mg single iv infusion over 30 min, healthy subjects, N=12, read-out: AUC (0-24)",5810 ng·h/mL
same,AUC(0-t),"[2]; iv, 600 mg, 600 mg single iv infusion over 30 min, healthy subjects, N=12, read-out: AUC (0-last)",6640 ng·h/mL
same,Cmax,"[2]; iv, 600 mg, 600 mg single iv infusion over 30 min, healthy subjects, N=12, read-out: Cmax",5580 ng/mL
same,AUC(0-inf),[2]; [15],175 ng·h/mL
same,half-life,[2]; [15],0.62 h
same,Tmax,"[2]; 20 mg single iv infusion over 30 min, healthy subjects, N=6, read-out: Tmax Mean",25.2 min
same,AUC(0-inf),[2]; [16],312 ng·h/mL
same,half-life,[2]; [16],9.16 h
same,Tmax,"[2]; 60 mg single iv infusion over 30 min, healthy subjects, N=6, read-out: Tmax Mean",22.8 min
same,AUC(0-inf),[2]; [17],2050 ng·h/mL
same,half-life,[2]; [17],54.8 h
same,Tmax,"[2]; 180 mg single iv infusion over 30 min, healthy subjects, N=6, read-out: Tmax Mean",27.6 min
same,AUC(0-inf),[2]; [18],3830 ng·h/mL
same,half-life,[2]; [18],43.7 h
same,Tmax,"[2]; 360 mg single iv infusion over 30 min, healthy subjects, N=5, read-out: Tmax Mean",27 min
same,AUC(0-inf),[2]; [19],7580 ng·h/mL
same,half-life,[2]; [19],41.1 h
same,Tmax,"[2]; 600 mg single iv infusion over 30 min, healthy subjects, N=12, read-out: Tmax Mean",27.6 min
same,"safety, tolerability",[3],well tolerated with no dose limiting adverse events or arrhythmias observed
same,in vitro inhibitory effects on INa-Peak,[4],relatively balanced in vitro inhibitory effects
same,in vitro inhibitory effects on INa-Late,[5],relatively balanced in vitro inhibitory effects
same,"in vitro inhibitory effects on ICa,L",[6],relatively balanced in vitro inhibitory effects
same,in vitro inhibitory effects on IKr,[7],relatively balanced in vitro inhibitory effects
"COc1ccc(S(=O)(=O)NCc2cc(CN3CCCC3)c(O)c(CN3CCCC3)c2)cc1 [sulcardine, N-[4-hydroxy-3,5-bis(1-pyrrolidinylmethyl)benzyl]-4-methoxybenzenesulfonamide]",expected half-life for oral administration,[8],about 16 hours
